Columns and labels:
Melanocortin receptor 5 [1] = target: T1, Melanocortin receptor 5 (Homo sapiens, UniProt P33032); assay: Effective concentration against human melanocortin 5 receptor in cAMP release assay; format: functional
Melanocortin receptor 5 [2] = target: T1, Melanocortin receptor 5; assay: Inhibition of [125I]-NDP- alpha-MSH binding to human melanocortin 5 receptor
Melanocortin receptor 4 [3] = target: T2, Melanocortin receptor 4 (Homo sapiens, UniProt P32245); assay: Inhibition of [125I]-NDP- alpha-MSH binding to human melanocortin 4 receptor
Melanocortin receptor 4 [4] = target: T2, Melanocortin receptor 4; assay: Inhibition of [125I]-NDP- alpha-MSH binding to human melanocortin 4 receptor expressed in CHO cells; format: cell-based
Melanocortin receptor 3 [5] = target: T3, Melanocortin receptor 3 (Homo sapiens, UniProt P41968); assay: Inhibition of [125I]-NDP- alpha-MSH binding to human melanocortin 3 receptor
[6] = target: T4, Melanocyte-stimulating hormone receptor (Homo sapiens, UniProt Q01726); assay: Inhibition of [125I]-NDP- alpha-MSH binding to human melanocortin 1 receptor
Target sequence in this assay (Q01726 whole entry): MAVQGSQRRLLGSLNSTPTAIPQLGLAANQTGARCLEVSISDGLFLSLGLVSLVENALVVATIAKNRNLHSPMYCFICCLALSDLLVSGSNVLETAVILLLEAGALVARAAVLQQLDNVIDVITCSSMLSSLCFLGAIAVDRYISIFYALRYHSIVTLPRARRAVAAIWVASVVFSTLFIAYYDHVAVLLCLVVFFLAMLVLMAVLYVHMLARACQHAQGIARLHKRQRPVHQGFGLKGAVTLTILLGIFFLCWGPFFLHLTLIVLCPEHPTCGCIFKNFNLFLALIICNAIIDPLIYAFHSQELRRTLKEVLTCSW

Melanocortin receptor 4 [7] = target: T2, Melanocortin receptor 4; assay: Effective concentration at human melanocortin 4 receptor in cAMP release assay; format: functional
Melanocortin receptor 5 [8] = target: T1, Melanocortin receptor 5; assay: Maximum percentage of cAMP accumulation compared to alpha-MSH at human melanocortin 5 receptor at 10 uM; format: functional
Melanocortin receptor 5 [9] = target: T1, Melanocortin receptor 5; assay: Inhibition of [125I]-NDP- alpha-MSH binding to human melanocortin 5 receptor expressed in CHO cells; format: cell-based
Melanocortin receptor 3 [10] = target: T3, Melanocortin receptor 3; assay: Inhibition of [125I]-NDP- alpha-MSH binding to human melanocortin 3 receptor expressed in CHO cells; format: cell-based
Melanocortin receptor 4 [11] = target: T2, Melanocortin receptor 4; assay: Maximum percentage of cAMP accumulation relative to alpha-MSH at human melanocortin 4 receptor at 10 uM; format: functional
Melanocortin receptor 3 [12] = target: T3, Melanocortin receptor 3; assay: Maximum percentage of cAMP accumulation compared to alpha-MSH at human melanocortin 3 receptor at 10 uM; format: functional
Melanocortin receptor 3 [13] = target: T3, Melanocortin receptor 3; assay: Maximum percentage of cAMP accumulation compared to alpha-MSH at human melanocortin 3 receptor; format: functional
Melanocortin receptor 3 [14] = target: T3, Melanocortin receptor 3; assay: Effective concentration against human melanocortin 3 receptor in cAMP release assay; format: functional
[15] = target: T4, Melanocyte-stimulating hormone receptor; assay: Effective concentration against human melanocortin 1 receptor in cAMP release assay; format: functional
Target sequence in this assay (Q01726 whole entry): as above

Melanocortin receptor 5 [16] = target: T1, Melanocortin receptor 5; assay: Maximum percentage of cAMP accumulation compared to alpha-MSH at human melanocortin 5 receptor; format: functional
[17] = target: T4, Melanocyte-stimulating hormone receptor; settings: 10 uM
Target sequence in this assay (Q01726 whole entry, looked up): as the sequence (Q01726 whole entry) above
Description: Maximum percentage of cAMP accumulation compared to alpha-MSH at human melanocortin 1 receptor at 10 uM

Melanocortin receptor 3 [18] = target: T3, Melanocortin receptor 3; assay: Inhibition of [125I]-NDP- alpha-MSH binding to human melanocortin 3 receptor expressed in CHO cell at 4 uM; format: cell-based

T3 sequence (P41968 whole entry): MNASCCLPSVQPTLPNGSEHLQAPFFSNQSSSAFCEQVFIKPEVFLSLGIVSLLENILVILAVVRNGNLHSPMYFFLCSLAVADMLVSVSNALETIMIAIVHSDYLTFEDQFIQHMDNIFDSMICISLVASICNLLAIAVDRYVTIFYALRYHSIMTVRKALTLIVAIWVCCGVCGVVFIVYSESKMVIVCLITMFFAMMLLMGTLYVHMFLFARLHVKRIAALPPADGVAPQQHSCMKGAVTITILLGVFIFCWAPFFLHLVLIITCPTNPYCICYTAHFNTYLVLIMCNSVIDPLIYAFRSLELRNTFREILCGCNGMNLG
T1 sequence (P33032 whole entry): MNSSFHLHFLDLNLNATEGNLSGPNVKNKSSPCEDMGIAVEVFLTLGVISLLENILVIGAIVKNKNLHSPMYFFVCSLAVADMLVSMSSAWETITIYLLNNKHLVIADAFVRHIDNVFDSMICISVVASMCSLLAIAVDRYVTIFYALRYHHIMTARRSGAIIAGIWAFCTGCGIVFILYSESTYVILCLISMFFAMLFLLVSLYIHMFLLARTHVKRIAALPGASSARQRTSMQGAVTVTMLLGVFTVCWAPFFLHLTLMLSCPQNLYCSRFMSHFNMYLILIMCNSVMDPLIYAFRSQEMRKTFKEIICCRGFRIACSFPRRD
T2 sequence (P32245 whole entry): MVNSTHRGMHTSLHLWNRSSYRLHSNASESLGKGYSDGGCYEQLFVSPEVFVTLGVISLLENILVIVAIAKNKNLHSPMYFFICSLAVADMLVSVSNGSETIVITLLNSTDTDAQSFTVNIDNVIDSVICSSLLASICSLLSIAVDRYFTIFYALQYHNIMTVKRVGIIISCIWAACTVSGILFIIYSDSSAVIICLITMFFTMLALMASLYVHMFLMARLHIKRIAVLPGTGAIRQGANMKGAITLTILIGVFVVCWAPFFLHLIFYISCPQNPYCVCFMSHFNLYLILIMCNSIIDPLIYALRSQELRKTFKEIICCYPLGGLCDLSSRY

| SMILES | IC50 (Melanocortin receptor 5 [2]) | IC50 (Melanocortin receptor 4 [4]) | IC50 (Melanocortin receptor 3 [5]) | IC50 [6] | EC50 (Melanocortin receptor 4 [7]) | Max (Melanocortin receptor 5 [8]) | IC50 (Melanocortin receptor 5 [9]) | Max (Melanocortin receptor 4 [11]) | Max (Melanocortin receptor 3 [12]) | other results |
| --- | --- | --- | --- | --- | --- | --- | --- | --- | --- | --- |
| COc1ccc(N2N=C(Sc3ccc(Cl)cc3)CC(CC[C@@H](C)NC(=O)[C@H]3CNCC[C@@H]3c3ccc(F)cc3)C2=O)cc1 (stereo in doubt; 26) [listing 1 of 2 here] | 1100 nM | 1.5 nM | 420 nM | 230 nM | 40 nM | – | – | – | – | EC50 (Melanocortin receptor 5 [1]): 2400 nM; IC50 (Melanocortin receptor 4 [3]): 1.5 nM |
| COc1ccc(-n2nc(Sc3ccc(Cl)cc3)cc(CC[C@@H](C)NC(=O)[C@H]3CNCC[C@@H]3c3ccc(F)cc3)c2=O)cc1 | – | 11 nM | – | – | 61 nM | 7% | 840 nM | 71% | 6% | IC50 (Melanocortin receptor 3 [10]): 940 nM |
| COc1ccc(N2N=C(Sc3ccc(Cl)cc3)CC(CC[C@@H](C)NC(=O)[C@H]3CCNC[C@@H]3c3ccc(F)cc3)C2=O)cc1 (stereo in doubt; 63) [listing 1 of 2 here] | – | – | – | – | – | 7% | – | 98% | – | Max (Melanocortin receptor 3 [13]): 21% |
| COc1ccc(N2N=C(Sc3ccc(Cl)cc3)CC(CC[C@@H](C)NC(=O)[C@H]3CCNC[C@@H]3c3ccc(F)cc3)C2=O)cc1 (stereo in doubt; 63) [listing 2 of 2 here] | 3100 nM | 22 nM | 4700 nM | 1100 nM | 30 nM | – | – | – | – | IC50 (Melanocortin receptor 4 [3]): 22 nM; EC50 (Melanocortin receptor 3 [14]): 1100 nM; EC50 [15]: 220 nM |
| COc1ccc(N2N=C(Sc3ccc(Cl)cc3)CC(CC[C@@H](C)NC(=O)C3CNC[C@@H]3c3ccc(F)cc3)C2=O)cc1 (single isomer, unassigned; 67) [listing 1 of 2 here] | 690 nM | 18 nM | 1600 nM | 290 nM | 66 nM | – | – | – | – | EC50 [15]: 240 nM |
| COc1ccc(N2N=C(Sc3ccc(Cl)cc3)CC(CC[C@@H](C)NC(=O)C3CNC[C@@H]3c3ccc(F)cc3)C2=O)cc1 (single isomer, unassigned; 67) [listing 2 of 2 here] | – | – | – | – | – | 5% | – | 90% | 10% | – |
| COc1ccc(-n2nc(Sc3ccc(Cl)cc3)cc(CC[C@@H](C)NC(=O)[C@H]3CNC[C@@H]3c3ccc(F)cc3)c2=O)cc1 | – | 70 nM | – | – | 110 nM | 5% | 1400 nM | 84% | – | EC50 (Melanocortin receptor 3 [14]): 2400 nM; Max (Melanocortin receptor 3 [13]): 24%; IC50 (Melanocortin receptor 3 [10]): > 3000 nM |
| COc1ccc(N2N=C(Sc3ccc(Cl)cc3)CC(CC[C@@H](C)NC(=O)[C@H]3CNCC[C@@H]3c3ccc(F)cc3)C2=O)cc1 (stereo in doubt; 26) [listing 2 of 2 here] | – | – | – | – | – | – | – | 67% | 5% | Max (Melanocortin receptor 5 [16]): 27%; Max [17]: 12% |
| COc1ccc(-n2nc(Sc3ccc(Cl)cc3)cc(CC[C@@H](C)NC(=O)[C@H]3CCNC[C@@H]3c3ccc(F)cc3)c2=O)cc1 | – | 66 nM | – | – | 110 nM | 1% | 1200 nM | 101% | 45% | inhibition (Melanocortin receptor 3 [18]): 40% |
